From publication PMC6745035, “Novel tetrahydroacridine derivatives with iodobenzoic moieties induce G0/G1 cell cycle arrest and apoptosis in A549 non-small lung cancer and HT-29 colorectal cancer cells” (Molecular and Cellular Biochemistry, 2019)

Experiments:
[1] = system: 253J B-V and 253J B-V cisplatin-resistant cells
PARP-1 = experiment: Western blot of PARP-1 cleavage, HT-29; format: cell-based, human; details: HT-29, 24 h, IC50 and 1/2IC50
Procedure: Then, cells were treated with chosen compounds. After 24 h of incubation, monolayer and supernatant were harvested and washed in cold PBS. Cells were centrifuged—monolayer at 1200 rpm for 10 min, supernatant 3500 rpm for 10 min. Pellets were dissolved in RIPA Lysis and Extraction buffer (Bio-Rad) containing Phosphatase Inhibitor Cocktail 3 (Sigma Aldrich) and Protease Inhibitor Cocktail (Sigma Aldrich). Samples were incubated in ice for 30 min and mixed every 10 min. Then, samples were centrifuged at 12,000 rpm for 25 min. Protein concentration in supernatants was measured in triplicate using a Protein Assay (Bio-Rad). Proteins were separated by SDS–polyacrylamide gel electrophoresis. Separating and stacking gels were made of different ratios of water, Tris–HCl pH 6.8 and pH 8.8, 10% SDS (Sigma Aldrich), Acrylamide/bis-acrylamide (Sigma Aldrich), 10% APS (Sigma Aldrich), TEMED (Sigma Aldrich). 7.5% gels were prepared for analysis PARP-1, whereas 12% gels prepared for γ-H2AX. After separation on SDS–polyacrylamide gels, proteins were electroblotted on nitrocellulose membrane in Transfer Buffer (Glycine, Tris, Methanol). Membranes were washed in TBS/0.1% or 0.05% Tween20 solution and blocked in Tris-buffered saline with 5% of non-fated dried milk for 1 h. Membranes were then incubated overnight with primary antibodies—anti-PARP-1 (Cell Signaling Technology), anti-γ-H2A.X (Cell Signaling Technology), anti-β-actin (Cell Signaling Technology) in cold room (6 °C). After incubation, membranes well washed with TBS/Tween solution and blocked with and horseradish peroxidase-conjugated secondary antibodies (Bio-Rad) for 1 h in cold room. Protein bands were visualized using ECL™ Prime Western Blotting Detection Reagents (Sigma Aldrich) Healthcare and Carestream Kodak autoradiography GBX fixer/replenisher (Sigma Aldrich) with Developer and Replenisher (Carestream) in the dark room. Results were obtained on Autoradiography Film (Santa Cruz Biotechnology). Densitometric analysis was performed by using a software program (ImageJ). […]

HT-29 cells [2] = experiment: Reactive oxygen species assay (DCFH-DA), HT-29; format: cell-based, human; details: compound at IC50 24 h plus H2O2, H2O2 only 1.88-fold
Procedure: After incubation, compounds were added into the wells and further incubated for next 24 h. H2O2 (1 mM) was added at 22nd h of incubation with compounds. H2O2 was used as a positive control. 30 min before the analysis, DCFH-DA (20 µM) was added to the wells. After incubation, cells were harvested and washed in PBS. Then, cells were centrifuged at 1500 rpm for 10 min. Medium was removed and cells were suspended in PBS. Analysis was performed on BD Accuri C6 Flow Cytometry (Becton–Dickinson).

HT-29 cells [3] = experiment: Colony forming assay, HT-29
A549 cells = experiment: Cell cycle analysis (PI, flow cytometry), A549; format: cell-based, human; details: A549, 24 h, compound at 1/2IC50 (1i 7.44 µM)
Procedure: Then, compounds were added into the wells and cells were further incubated for 24 h. After incubation, monolayer and supernatant cells were harvested and washed in PBS. Then, cells were centrifuged (monolayer—1200 rpm for 10 min, supernatant 3500 rpm for 10 min) and fixed in cold 70% ethanol. Pellets were kept at 4 °C for at least 2 h. Prior to analysis, cells were centrifuged and re-suspended in RNAsi (type 1-A; Sigma Aldrich)—PBS working solution (200 µg/mL). Samples were incubated at 37 °C for 10 min. At the end, 3 µL of 2 mg/mL propidium iodide (PI) (Sigma Aldrich) solution was added to each sample. Samples were kept in the dark prior to analysis. Analysis was performed on BD Accuri C6 Flow Cytometry (Becton–Dickinson). Etoposide (Calbiochem) was used as a reference drug. Experiments were done in triplicates.

SH-SY5Y cells = experiment: Cytoprotection against rotenone/oligomycin A, co-incubation, MTT; format: cell-based, human; details: co-incubation with rotenone/oligomycin A, 0.001 µM
Procedure: In the co-incubation assay, compounds and mixture of R/O were incubated together for 24 h. […] It turned out that none of the compounds (apart from 1i at the concentration of 0.001 µM and cytoprotection of 2.99%) had cytoprotective properties in the whole range of concentrations (Fig. 17). Compounds were not able to capture free radicals; therefore they cannot be classified as free-radical scavengers.

O=C(NCCCNc1c2c(nc3ccccc13)CCCC2)c1ccccc1I [Compound 1b]
Cytotoxic effect on cisplatin-resistant versus non-resistant 253J B-V cells (in words) [1]: resistant cells were more sensitive

O=C(NCCCCNc1c2c(nc3ccccc13)CCCC2)c1ccccc1I [Compound 1c]
Cleaved PARP-1 (89 kDa) level (in words) (PARP-1): lower apoptosis at IC50 concentrations | Increase in ROS level (DCF fluorescence) in comparison with non-treated control (HT-29 cells [2]): 1.83 fold | Cytotoxic effect on cisplatin-resistant versus non-resistant 253J B-V cells (in words) [1]: resistant cells were more sensitive | Number of colonies expressed as percent of control number (HT-29 cells [3]; compound at 1/2IC50): 10.06% | Number of colonies expressed as percent of control number (HT-29 cells [3]; compound at 2xIC50): 0% | Number of colonies expressed as percent of control number (HT-29 cells [3]; compound at IC50): 4.38%

O=C(NCCCCNc1c2c(nc3ccccc13)CCCC2)c1ccc(I)cc1 [Compound 1i]
Cells in G2/M phase (A549 cells): 11.31% | Cells in S phase (A549 cells): 12.76% | Cells in G0/G1 phase (A549 cells; control 51.74%): 75.93% | Cleaved PARP-1 (89 kDa) level (in words) (PARP-1): highest PARP-1 cleavage | Cytoprotection (SH-SY5Y cells): 2.99% | Increase in ROS level (DCF fluorescence) in comparison with non-treated control (HT-29 cells [2]): 1.85 fold
